Molecular target: hERG (Potassium voltage-gated channel subfamily H member 2) (Homo sapiens, UniProt Q12809)
Experiment: hERG Channel Inhibition
Conditions: HEK293 cells stably expressing hERG channel, pH 7.35
Experimental: The assay was performed on hERG channel stably expressed in HEK293 cells. The cells were cultured at 37° C. in a humidified CO2 incubator in the growth medium consisting of DMEM, 10% fetal bovine serum and antibiotics. Prior to the assay, the cells were seeded onto a 12-mm PDL-coated glass coverslip and cultured in a 35-mm Petri dish. […] Giga-seal was maintained during the test. […] Whole-cell hERG currents were recorded following the Petroski protocol: the cell was held at −80 mV, and the voltage step jumped from −80 to 30 mV and stay for 2 seconds with a 20-millisecond prepulse at −40 mV. After depolarization, the voltage was decreased to −40 mV and stay for 2 seconds, and returned back to −80 mV. Test compound was applied by quartz capillary tubes tip (200 m inner diameter), and the flow rate was controlled at 2-3 mL/min with OctaFlow perfusion system. Different concentrations of the compound were applied to the cells for 5 minutes and the hERG current was measured three times before, during and after compound treatment. The data were analyzed using Clampfit 10 software (Molecular Devices) to generate IC50 values.

hERG (Potassium voltage-gated channel subfamily H member 2), sequence (Q12809 whole entry): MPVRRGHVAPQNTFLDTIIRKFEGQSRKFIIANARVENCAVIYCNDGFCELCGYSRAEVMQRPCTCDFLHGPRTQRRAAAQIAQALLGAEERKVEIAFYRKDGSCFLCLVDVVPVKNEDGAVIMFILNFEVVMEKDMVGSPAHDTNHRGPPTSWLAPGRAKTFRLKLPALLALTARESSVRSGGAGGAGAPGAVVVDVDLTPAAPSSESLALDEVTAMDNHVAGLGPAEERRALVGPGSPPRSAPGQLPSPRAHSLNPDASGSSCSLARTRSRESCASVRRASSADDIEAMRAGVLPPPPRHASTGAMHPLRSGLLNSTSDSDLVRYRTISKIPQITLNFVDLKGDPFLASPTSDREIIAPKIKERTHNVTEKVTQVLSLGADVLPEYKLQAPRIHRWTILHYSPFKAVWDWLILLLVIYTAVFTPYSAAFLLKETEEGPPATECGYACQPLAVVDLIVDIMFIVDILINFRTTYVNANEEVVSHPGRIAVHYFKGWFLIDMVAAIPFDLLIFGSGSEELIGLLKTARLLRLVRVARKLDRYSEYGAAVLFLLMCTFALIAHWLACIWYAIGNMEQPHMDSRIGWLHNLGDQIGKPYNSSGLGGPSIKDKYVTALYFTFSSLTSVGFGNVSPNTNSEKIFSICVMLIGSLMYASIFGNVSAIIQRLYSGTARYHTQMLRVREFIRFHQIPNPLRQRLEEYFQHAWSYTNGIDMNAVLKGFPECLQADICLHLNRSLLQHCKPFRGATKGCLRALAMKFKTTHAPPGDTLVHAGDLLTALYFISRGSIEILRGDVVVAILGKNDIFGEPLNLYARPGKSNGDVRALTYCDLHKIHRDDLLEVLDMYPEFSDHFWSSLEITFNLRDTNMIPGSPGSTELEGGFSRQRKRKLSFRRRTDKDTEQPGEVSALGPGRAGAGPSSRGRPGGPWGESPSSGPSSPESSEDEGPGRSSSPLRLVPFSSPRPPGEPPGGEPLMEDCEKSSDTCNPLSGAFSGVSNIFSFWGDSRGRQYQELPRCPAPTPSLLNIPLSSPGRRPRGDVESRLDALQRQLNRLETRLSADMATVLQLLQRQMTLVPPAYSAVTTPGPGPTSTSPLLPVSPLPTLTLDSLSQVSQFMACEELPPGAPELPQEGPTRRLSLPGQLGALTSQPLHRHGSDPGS

Compound: FC(F)(F)Oc1ccc(C(F)(F)CN2CCC(Nc3ncnc4[nH]ccc34)CC2)nc1 [US11752155, Compound C-11A']
- IC50 at 5 min: 3.8 µM

— BindingDB's records for patent US11752155 (Rugen Holdings (Cayman), 2023)
